{
  "source": "patent US20200289482A1",
  "about": "“CYSTIC FIBROSIS TRANSMEMBRANE CONDUCTANCE REGULATOR MODULATORS FOR TREATING AUTOSOMAL DOMINANT POLYCYSTIC KIDNEY DISEASE” (The Johns Hopkins University, priority 2017, published 2020)",
  "key": {"PC2": {"system": "PC2", "experiment": "Western blot of PC2 expression", "type": "cell-based, mouse", "settings": "PN cells, endogenous PC2", "procedure": "FIG. 6A and FIG. 6B show PC2 expression is unchanged by VX-809. (FIG. 6A) Western blot showing expression of PC2 in treated or control cells. (FIG. 6B) Columns represent the means±SEM of the PC2 expression. The data were analyzed by non-parametric t-test. The experiment was repeated six (control) or seven times;\nPC2 is a 968-amino acid protein with an approximate molecular weight of 100 kDa in its monomeric form. To determine whether VX-809 affects PC2 protein expression, western blot experiments were conducted on PN cells to determine the resting levels of endogenous PC2."}, "cAMP in PN cells": {"system": "cAMP in PN cells", "experiment": "Cyclic AMP enzyme immunoassay in cells", "type": "cell-based, mouse", "procedure": "FIG. 4A, FIG. 4B, FIG. 4C, FIG. 4D, and FIG. 4E show (FIG. 4A-FIG. 4B) cAMP levels are reduced by VX-809. (FIG. 4A) cAMP levels in mouse tissue were reduced by VX-809. The kidney samples (n=6) analyzed were taken from those depicted in FIG. 1. (FIG. 4B) Confluent PN and PH cells were treated with VX-809 (10 μM) or DMSO for 16 h and then treated with forskolin (100 μM) for 30 min before the cells were harvested for the assay. Columns represent means±SEM. Statistical analysis was performed using a two-tailed Student's t-test. Each set of data is from three individual wells; Note that resting cAMP is greater in PN vs PH cells as previously shown (25). Also note that forskolin caused a large increase in cAMP. A smaller increase occurred with IBMX. However, the increase induced by forskolin alone was similar to that by IBMX plus forskolin. […] (FIG. 4C, FIG. 4D, and FIG. 4E) Adenylyl cyclase expression. (FIG. 4C) Western blot showing the expression of adenylyl cyclase (AC) 6 and AC3 in treated and control PN cells. (FIG. 4D-FIG. 4E) Columns represent means±SEM of the AC3 and AC6 expression. The data were analyzed by non-parametric t-test. The experiment was repeated four times. For all graphs, *P<0.05, **P<0.01, and ***P<0.001;\nIt has been shown previously in both animal and cell culture models of ADPKD that cells lacking functional PC1 have elevated cAMP levels when compared to normal (24). To assess the effect of CFTR correctors, cAMP activity was measured in PC1 conditional knockout mouse kidneys and in PN cells that were either left untreated or treated with VX-809. […] Cells were treated with forskolin, which increased cAMP levels drastically (FIG. 4B). […] Treating PN cells with forskolin or IBMX (FIG. 4B) increased the cAMP activity by ˜10-fold.\nConfluent cells were treated with VX-809 (10 μM) or DMSO for 16 h before being harvested for assay. Cyclic AMP levels were measured with a direct cAMP Enzyme Immunoassay Kit (Sigma, # CA200) according to the manufacturer's protocol. The results are expressed as pmole/ml. Statistical analysis was performed using a two-tailed Student's t-test."}, "[1]": {"system": "kidneys of Pkd1^fl/fl; Pax8^rtTA; TetO-cre mice", "experiment": "Ki67 staining of kidney sections (proliferation)", "type": "in vivo, mouse", "settings": "VX-809 30 mg/kg to mice vs DMSO-treated mice; PN21 kidney sections", "source_text": "FIG. 3A, FIG. 3B, FIG. 3C, and FIG. 3D show cell proliferation is reduced by VX-809. (FIG. 3A-FIG. 3B) Proliferation in kidneys of Pkd1^fl/fl; Pax8^rtTA; TetO-cre mice. Representative images of Ki67 (a cellular marker for proliferation) staining of PN21 kidney sections from DMSO- and VX-809-treated mice. Arrows indicate Ki67-positive cells. Pictures were acquired with a Zeiss microscope equipped with 20× objective. (FIG. 3C) Summary data for Ki67-positive cells. Columns represent averages±standard errors of DMSO (vehicle)-treated (n=3) and VX-809-treated (n=3) mice. Statistical analysis was performed using a two-tailed Student's t test. (FIG. 3D) Proliferation in PN cells. PN cells were treated with VX-809 or DMSO). The bromodeoxyuridine (BrdU) concentration in the cells was measured by using a BrdU cell proliferation assay kit (Millipore Sigma #2750) according to the manufacturer's protocol. Columns represent averages±SEs of the OD of BrdU at 450/550 […]. Data were analyzed using Student's t-test, with n=5-7. Methods were described previously (62). […]; **P<0.01;\nA hallmark of the cysts in ADPKD is an increase in proliferation in response to cAMP (23). Therefore, it was determined whether VX-809 would affect proliferation."}, "Hsp70": {"system": "Hsp70", "experiment": "Western blot of Hsp70 in PN cells", "type": "cell-based, mouse", "settings": "VX-809 10 μM 16 h", "procedure": "FIG. 8A, FIG. 8B, FIG. 8C, FIG. 8D, FIG. 8E, FIG. 8F, FIG. 8G, and FIG. 8H show chaperone expression is altered in PH and PN cells by VX-809. (FIG. 8A) Western blot showing expression of HSP27, 70 and HSP 90 in VX-809 treated or control PN cells. […] (FIG. 8E). Western blot of HSP27, 70 and 90 in PH vs. PN cells. […] Whereas, Hsp70 is higher in PH vs. PN cells. Data were analyzed by non-parametric t test. Experiment was repeated 4-5 times. Cells were grown in 10-cm culture dishes at permissive conditions (33° C.) with γ-interferon in culture media. Cells were then transferred to non-permissive conditions at 37° C., γ-interferon free culture media and evaluated at full confluence. At day four, cells were treated with VX-809 (10 μM) for 16 h and harvested on fifth day for assay. *P<0.05., **P<0.01, ***P<0.001, ****P<0.0001; To facilitate their growth in the kidney, cysts have developed an altered network of proteins that most likely serves to protect them from stress (34). Next, it was determined whether VX-809 would alter the levels of Hsps in pkd−/− mice and in PN cells. […] Hsp 27, 70 and 90 are all elevated in cystic kidneys compared to normal controls. […] There is no change in Hsp 40. […] Both sets of data are consistent with an alteration in the heat shock response to cyst growth."}},
  "data": [
    {"substance": "lumacaftor [VX-809]", "values": [
      {"measurement": "PC2 expression", "setting": "PC2", "value": "no effect on PC2 expression"},
      {"measurement": "forskolin-induced increase in cAMP", "setting": "cAMP in PN cells; VX-809 10 μM 16 h, then forskolin 100 μM 30 min", "value": "reduced the forskolin-induced increase in cAMP"},
      {"measurement": "resting cAMP levels in PN cells", "setting": "cAMP in PN cells; VX-809 10 μM, 16 h vs untreated PN cells", "value": "significantly decreased the cAMP levels"},
      {"measurement": "forskolin- or IBMX-induced increases in adenylyl cyclase activity", "setting": "cAMP in PN cells; forskolin in combination with IBMX, data bars 5 and 9 FIG. 4B", "value": "did not affect the forskolin- or IBMX-induced increases in adenylyl cyclase activity"},
      {"measurement": "cell proliferation (Ki67-positive cells)", "setting": "[1]", "value": "significantly inhibit cell proliferation"},
      {"measurement": "Hsp70 expression in PN cells", "setting": "Hsp70", "value": "reduced expression"}
    ]}
  ]
}
